Reference: article PMC4307180, “Overcoming myelosuppression due to synthetic lethal toxicity for FLT3-targeted acute myeloid leukemia therapy” (eLife, 2014)
Entries after “also recorded” stand apart in the source; their conditions may differ.

Experiments:
[1] = tested on: MV4;11 cells (FLT3-ITD homozygous); test: Cell proliferation/viability assay, MV4;11; format: cell-based; settings: Homo sapiens, 48 hr, ± SEM
Description: (§1) Exponentially growing cells (5 × 10^3 cells per well) were plated in each well of a 96-well plate with 0.1 ml of RPMI 1640 + 10% (vol/vol) FCS containing the appropriate concentration of drug in triplicate, and cell viability was assessed after 48 hr as previously described ([Smith et al., 2012]). […] Log10-scale transformation of ratios, followed by conditional formatting using xcel spreadsheet software yielded the colored diagrams shown.

Ba/F3 FLT3 ITD = test: Ba/F3 cell viability, FLT3 ITD; format: cell-based; settings: Mus musculus, Ba/F3, 48 hr, ± SEM
Description: (§2) Stable Ba/F3 lines were generated by retroviral spinfection with the appropriate mutated plasmid as previously described ([Smith et al., 2012]).
as §1
(§3) Mutations isolated in the screen were engineered into pMSCVpuroFLT3–ITD by QuikChange mutagenesis (Stratagene, La Jolla, CA) as previously described ([Smith et al., 2012]).

HMC1.1 cells = test: Caspase-3 activation (apoptosis), HMC1.1; format: cell-based, human; settings: 48 hr, up to 2,500 nM
Description: Cells were fixed with 4% (vol/vol) paraformaldehyde (Electron Microscopy Sciences) and permeabilized with 100% (vol/vol) methanol (Electron Microscopy Sciences, Hatfield, PA) followed by staining with a FITC-conjugated antiactive caspase-3 antibody (BD Pharmingen, San Jose, CA). Cells were run on a BD LSRFortessa cell analyzer, and data were analyzed using FlowJo (Tree Star Inc., Ashland, OR). Percentage of live cells was determined by negative staining for activated caspase-3 (see Figure 2B,C).

KIT = KIT (Homo sapiens, UniProt P10721); test: Reaction Biology Corp kinase assay at Km-ATP (Figure 1C), KIT
Chain of KIT (P10721 26-976): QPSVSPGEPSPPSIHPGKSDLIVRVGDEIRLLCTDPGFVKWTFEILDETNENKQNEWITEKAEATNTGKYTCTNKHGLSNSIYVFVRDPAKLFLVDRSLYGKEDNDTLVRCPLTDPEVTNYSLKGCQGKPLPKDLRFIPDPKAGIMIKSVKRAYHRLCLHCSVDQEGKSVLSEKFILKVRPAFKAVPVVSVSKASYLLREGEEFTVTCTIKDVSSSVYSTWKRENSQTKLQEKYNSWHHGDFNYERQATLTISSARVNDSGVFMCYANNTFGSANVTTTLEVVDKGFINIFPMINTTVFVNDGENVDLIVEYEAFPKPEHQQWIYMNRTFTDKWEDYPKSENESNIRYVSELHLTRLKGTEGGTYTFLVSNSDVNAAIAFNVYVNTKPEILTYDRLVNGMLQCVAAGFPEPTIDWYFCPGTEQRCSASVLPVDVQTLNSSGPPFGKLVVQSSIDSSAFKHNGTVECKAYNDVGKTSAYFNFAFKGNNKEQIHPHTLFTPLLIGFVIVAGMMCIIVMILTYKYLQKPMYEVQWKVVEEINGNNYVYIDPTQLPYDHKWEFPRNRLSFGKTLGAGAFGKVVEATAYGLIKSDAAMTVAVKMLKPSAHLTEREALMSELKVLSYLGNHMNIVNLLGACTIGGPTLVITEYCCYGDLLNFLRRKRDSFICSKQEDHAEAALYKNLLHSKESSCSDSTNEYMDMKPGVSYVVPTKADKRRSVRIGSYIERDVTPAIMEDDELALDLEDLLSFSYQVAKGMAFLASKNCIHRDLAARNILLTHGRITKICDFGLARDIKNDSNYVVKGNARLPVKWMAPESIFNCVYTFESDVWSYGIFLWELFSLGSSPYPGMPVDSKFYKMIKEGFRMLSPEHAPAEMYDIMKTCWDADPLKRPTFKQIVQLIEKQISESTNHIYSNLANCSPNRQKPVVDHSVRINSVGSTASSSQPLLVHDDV

Ba/F3 FLT3 ITD + D835V = test: Ba/F3 cell viability, FLT3 ITD + D835V; format: cell-based; settings: Mus musculus, Ba/F3, 48 hr, ± SEM
Description: as §2, §1, §3

[2] = tested on: primary patient FLT3-ITD+ AML circulating blasts; test: Colony-forming assay, primary patient FLT3-ITD+ AML blasts; format: cell-based, human
From the text: Primary AML blood samples and/or marrow aspirates were obtained on an IRB-approved protocol at the University of California, San Francisco. Informed consent was obtained in accordance with the Declaration of Helsinki. Mononuclear cells were purified by density centrifugation (Ficoll–Paque Plus, GE Healthsciences) before cryopreservation in 10% (vol/vol) DMSO or FCS (primary ITD and D835-mutant assays, Figure 3A–C) or immediate use in assays (Normal BM and SPB, Figure 3D–F). Normal BM and stimulated peripheral blood (SPB) samples were collected from donors at the UCSF oncology/hematology division. Cells were then suspended in MethoCult methylcellulose (Stem Cell Technologies, product no. H4435 Enriched, Canada) in 15-ml Falcon tubes, vigorously vortexed, bubbles settled over 10 min. Triplicates then plated via blunt-nosed syringe (1.1 ml each) into 3-cm dishes, avoiding bubble generation, and each dish placed in a larger 10-cm dish with water trough in an incubator (37°C, 5% CO2) for 13–14 days. Colonies were counted individually using traditional microscopy. CFU and BFU types reported separately (CFU-GEMM colonies counted as one of each).

IC50 [1]: 41 ± 6 nM
IC50 (Ba/F3 FLT3 ITD): 57 ± 45 nM
IC50 (KIT): 1020 nM
IC50 (Ba/F3 FLT3 ITD + D835V): 70 ± 58 nM
Structure (SMILES): CC1NC(=O)c2c1c1c3ccccc3n(CCCN)c1c1[nH]c3ccccc3c21 (stereo not shown) [Star 27]
apoptosis/toxicity (caspase-3) in KIT-addicted HMC1.1 cells (HMC1.1 cells): very little up to 2,500 nM; also recorded: minimal apoptosis
inhibition at 1 µM ([2]; Homo sapiens, at 1000 nM, read-out: inhibition of colony formation, FLT3-ITD+ blasts): > 80%
raw colony numbers, FLT3-ITD+ blasts ([2]; at 1,000 nM, ca. 1,200 CFUs in DMSO plates): ca. 20
